Laboratory results reported in patent US20260263429A1, “INHIBITORS OF CA 2+/CALMODULIN-DEPENDENT PROTEIN KINASE II (CAMKII) THAT DO NOT INHIBIT LONG-TERM POTENTIATION (LTP) INDUCTION AND THERAPEUTIC USES THEREOF” (The Regents of the University of Colorado, A Body Corporate, priority 2023, published 2026).

How the values were obtained:
[1] = biological target: CDK2/cyclinE(h) (Homo sapiens, UniProt P24941); experiment: Kinase panel, residual kinase activity at 1 μM inhibitor; format: biochemical
Description: (§1) In this table, residual kinase activity in the presence of 1 μM of each inhibitor is illustrated as a percentage of maximal activity.

[2] = biological target: CaMKI(h) (Homo sapiens, UniProt Q14012); experiment: as above; format: biochemical
Description: as §1

[3] = biological target: CaMKIIδ(h) (Homo sapiens, UniProt Q13557); experiment: as above; format: biochemical
Description: as §1

[4] = biological target: GSK3α(h) (Homo sapiens, UniProt P49840); experiment: as above; format: biochemical
Description: as §1

[5] = biological target: PKCδ(h) (Homo sapiens, UniProt Q05655); experiment: as above; format: biochemical
Description: as §1

[6] = biological target: MAPK1(h) (Homo sapiens, UniProt P27361); experiment: as above; format: biochemical
Description: as §1

[7] = biological target: JNK2α2(h) (Homo sapiens, UniProt P45984); experiment: as above; format: biochemical
Description: as §1

[8] = biological target: AMPKα1(h) (Homo sapiens, UniProt Q13131); experiment: as above; format: biochemical
Description: as §1

[9] = biological target: Pim-1(h) (Homo sapiens, UniProt P11309); experiment: as above; format: biochemical
Description: as §1

[10] = biological target: CaMKIIγ(h) (Homo sapiens, UniProt Q13555); experiment: as above; format: biochemical
Description: as §1

[11] = biological target: PKCα(h) (Homo sapiens, UniProt P17252); experiment: as above; format: biochemical
Description: as §1

[12] = biological target: cKit(h) (Homo sapiens, UniProt P10721); experiment: as above; format: biochemical
Description: as §1

[13] = biological target: p70S6K(h) (Homo sapiens, UniProt P23443); experiment: as above; format: biochemical
Description: as §1

[14] = biological target: MEK1(h) (Homo sapiens, UniProt Q02750); experiment: as above; format: biochemical
Description: as §1

[15] = biological target: Pim-3(h) (Homo sapiens, UniProt Q86V86); experiment: as above; format: biochemical
Description: as §1

[16] = biological target: PDK1(h) (Homo sapiens, UniProt O15530); experiment: as above; format: biochemical
Description: as §1

[17] = biological target: KDR(h) (Homo sapiens, UniProt P35968); experiment: as above; format: biochemical
Description: as §1

[18] = biological target: mTOR(h) (Homo sapiens, UniProt P42345); experiment: as above; format: biochemical
Description: as §1

[19] = biological target: Arg(h) (Homo sapiens, UniProt P42684); experiment: as above; format: biochemical
Description: as §1

[20] = biological target: SGK(h) (Homo sapiens, UniProt O00141); experiment: as above; format: biochemical
Description: as §1

[21] = biological target: GSK3β(h) (Homo sapiens, UniProt P49841); experiment: as above; format: biochemical
Description: as §1

[22] = biological target: CaMKIIα(h) (Homo sapiens, UniProt Q9UQM7); experiment: as above; format: biochemical
Description: as §1

[23] = biological target: CaMKIV(h) (Homo sapiens, UniProt Q16566); experiment: as above; format: biochemical
Description: as §1

[24] = biological target: PDGFRβ(h) (Homo sapiens, UniProt P09619); experiment: as above; format: biochemical
Description: as §1

[25] = biological target: FGFR1(h) (Homo sapiens, UniProt P11362); experiment: as above; format: biochemical
Description: as §1

[26] = biological target: CaMKII F89G binding to GluN2B (Homo sapiens, UniProt Q9UQM7, F89G); experiment: In vitro binding of CaMKII F89G to GluN2B; conditions: NM-PP1
Excerpt: This conclusion also predicts that the LTP stimulus-induced movement of CaMKII to excitatory synapses should be (i) impaired in the CaMKII F89G mutant; but (ii) normalized by pharmacogenetic rescue with NM-PP1. Indeed, both predictions were observed experimentally (FIGS. 4D-4E).
CaMKII binding to GluN2B in vitro. CaMKII/GluN2B binding assays were done as described. Briefly, GST-GluN2B-c-tail (GST-2BC) was immobilized on anti-GST-antibody-coated microtiter plates (Thermo Scientific), blocked for 30 min with 5% BSA, and then overlaid with […] CaMKII (subunit concentration) in PIPES-buffered saline (pH 7.2) containing: 2 mM Ca^2+, 1 μM CaM, 1 mM Mg^2+, 0.1% BSA, 0.1% Tween-20 for 20 min at room temperature. Addition of 1 mM ADP, 1 mM ATP, 10 μM AS283 (or AS105) or […] NM-PP1 was added accordingly (see figure legends). After extensive washes in buffer containing 1 mM EGTA, GST-2BC and bound CaMKII was eluted for 10 min in SDS-loading buffer at 95° C. Bound CaMKII was measured via immunoblot.

Chain of PDK1(h) (O15530 whole entry): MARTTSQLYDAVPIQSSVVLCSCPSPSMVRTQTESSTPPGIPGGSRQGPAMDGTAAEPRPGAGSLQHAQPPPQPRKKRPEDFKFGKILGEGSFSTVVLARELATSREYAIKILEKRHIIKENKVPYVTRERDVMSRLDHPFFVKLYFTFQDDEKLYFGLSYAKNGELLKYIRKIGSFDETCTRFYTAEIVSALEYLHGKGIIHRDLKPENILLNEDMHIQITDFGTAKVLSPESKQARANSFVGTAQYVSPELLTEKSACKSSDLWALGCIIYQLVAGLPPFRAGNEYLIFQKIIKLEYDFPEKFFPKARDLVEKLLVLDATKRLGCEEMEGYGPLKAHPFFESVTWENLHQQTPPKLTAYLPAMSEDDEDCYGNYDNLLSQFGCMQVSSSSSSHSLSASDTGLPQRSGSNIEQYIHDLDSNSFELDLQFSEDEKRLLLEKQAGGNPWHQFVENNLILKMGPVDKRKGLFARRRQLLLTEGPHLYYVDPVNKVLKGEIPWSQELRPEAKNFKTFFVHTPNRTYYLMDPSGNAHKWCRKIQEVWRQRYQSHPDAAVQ
Chain of FGFR1(h) (P11362 22-822): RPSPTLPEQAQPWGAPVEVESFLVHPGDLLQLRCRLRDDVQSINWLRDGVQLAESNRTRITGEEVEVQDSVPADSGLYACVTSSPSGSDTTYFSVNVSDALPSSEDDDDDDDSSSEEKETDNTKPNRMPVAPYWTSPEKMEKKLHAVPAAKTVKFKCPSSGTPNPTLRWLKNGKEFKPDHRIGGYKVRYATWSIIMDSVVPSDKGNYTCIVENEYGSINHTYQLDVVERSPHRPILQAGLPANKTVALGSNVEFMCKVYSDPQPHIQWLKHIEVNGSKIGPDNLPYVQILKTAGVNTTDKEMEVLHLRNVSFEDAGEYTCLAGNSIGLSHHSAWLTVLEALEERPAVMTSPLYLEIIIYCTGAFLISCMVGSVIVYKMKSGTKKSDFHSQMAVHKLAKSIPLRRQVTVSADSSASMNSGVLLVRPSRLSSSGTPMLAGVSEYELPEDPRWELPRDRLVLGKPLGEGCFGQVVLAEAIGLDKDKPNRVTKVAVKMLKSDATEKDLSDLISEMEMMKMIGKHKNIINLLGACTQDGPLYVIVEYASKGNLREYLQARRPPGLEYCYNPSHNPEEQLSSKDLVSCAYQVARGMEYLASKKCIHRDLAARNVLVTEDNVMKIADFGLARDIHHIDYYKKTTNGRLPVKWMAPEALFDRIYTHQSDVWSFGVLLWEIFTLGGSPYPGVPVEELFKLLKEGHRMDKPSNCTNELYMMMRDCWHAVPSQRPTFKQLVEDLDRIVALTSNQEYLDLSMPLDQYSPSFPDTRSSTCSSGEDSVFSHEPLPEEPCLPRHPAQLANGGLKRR
Chain of PKCδ(h) (Q05655 whole entry): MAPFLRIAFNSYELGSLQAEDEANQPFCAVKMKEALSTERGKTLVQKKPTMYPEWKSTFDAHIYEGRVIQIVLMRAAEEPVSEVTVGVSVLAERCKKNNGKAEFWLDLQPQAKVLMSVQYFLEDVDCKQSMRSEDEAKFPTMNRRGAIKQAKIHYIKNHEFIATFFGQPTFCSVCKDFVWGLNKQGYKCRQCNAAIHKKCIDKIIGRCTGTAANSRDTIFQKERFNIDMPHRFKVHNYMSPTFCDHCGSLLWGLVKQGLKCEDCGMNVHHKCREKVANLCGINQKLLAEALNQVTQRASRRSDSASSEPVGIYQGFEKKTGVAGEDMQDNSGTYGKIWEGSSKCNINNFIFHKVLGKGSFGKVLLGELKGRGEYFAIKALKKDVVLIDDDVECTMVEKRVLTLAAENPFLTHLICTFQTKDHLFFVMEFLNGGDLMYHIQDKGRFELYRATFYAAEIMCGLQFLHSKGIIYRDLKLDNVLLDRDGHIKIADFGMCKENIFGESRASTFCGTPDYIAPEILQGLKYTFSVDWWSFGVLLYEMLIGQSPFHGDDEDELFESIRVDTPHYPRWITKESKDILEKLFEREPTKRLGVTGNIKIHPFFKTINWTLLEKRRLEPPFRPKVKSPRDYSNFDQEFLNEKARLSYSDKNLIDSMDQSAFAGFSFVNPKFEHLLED
Chain of Arg(h) (P42684 whole entry): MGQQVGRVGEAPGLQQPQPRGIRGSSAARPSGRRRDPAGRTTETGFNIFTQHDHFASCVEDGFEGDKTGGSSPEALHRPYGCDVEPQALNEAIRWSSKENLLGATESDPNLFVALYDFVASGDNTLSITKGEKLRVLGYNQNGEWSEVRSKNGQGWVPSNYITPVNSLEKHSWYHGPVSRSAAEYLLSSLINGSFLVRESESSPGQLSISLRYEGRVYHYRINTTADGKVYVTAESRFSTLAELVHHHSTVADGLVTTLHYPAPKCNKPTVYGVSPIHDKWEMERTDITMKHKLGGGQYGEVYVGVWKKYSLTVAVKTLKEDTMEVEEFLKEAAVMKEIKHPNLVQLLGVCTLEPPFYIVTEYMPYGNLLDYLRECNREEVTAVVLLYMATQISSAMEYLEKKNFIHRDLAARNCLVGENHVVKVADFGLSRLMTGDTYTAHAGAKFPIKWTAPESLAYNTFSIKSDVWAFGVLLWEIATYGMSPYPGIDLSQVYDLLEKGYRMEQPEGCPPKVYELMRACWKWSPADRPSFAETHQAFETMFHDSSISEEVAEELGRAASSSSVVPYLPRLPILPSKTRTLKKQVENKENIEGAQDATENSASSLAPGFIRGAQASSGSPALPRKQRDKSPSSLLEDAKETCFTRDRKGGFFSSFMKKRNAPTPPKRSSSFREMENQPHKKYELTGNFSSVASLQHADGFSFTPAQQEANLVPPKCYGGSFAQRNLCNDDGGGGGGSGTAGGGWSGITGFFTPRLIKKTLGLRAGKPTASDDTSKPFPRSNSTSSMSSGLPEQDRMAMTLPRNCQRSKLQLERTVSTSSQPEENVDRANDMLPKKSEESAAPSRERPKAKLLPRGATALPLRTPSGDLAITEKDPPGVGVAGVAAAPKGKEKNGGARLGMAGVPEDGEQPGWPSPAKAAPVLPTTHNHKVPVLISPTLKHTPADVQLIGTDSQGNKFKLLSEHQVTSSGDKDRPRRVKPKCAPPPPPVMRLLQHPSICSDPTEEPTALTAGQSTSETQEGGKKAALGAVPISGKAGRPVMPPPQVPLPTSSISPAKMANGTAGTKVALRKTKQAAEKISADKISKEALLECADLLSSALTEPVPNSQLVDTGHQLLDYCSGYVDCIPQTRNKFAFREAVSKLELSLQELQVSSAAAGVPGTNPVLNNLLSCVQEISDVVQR
Chain of GSK3β(h) (P49841 whole entry): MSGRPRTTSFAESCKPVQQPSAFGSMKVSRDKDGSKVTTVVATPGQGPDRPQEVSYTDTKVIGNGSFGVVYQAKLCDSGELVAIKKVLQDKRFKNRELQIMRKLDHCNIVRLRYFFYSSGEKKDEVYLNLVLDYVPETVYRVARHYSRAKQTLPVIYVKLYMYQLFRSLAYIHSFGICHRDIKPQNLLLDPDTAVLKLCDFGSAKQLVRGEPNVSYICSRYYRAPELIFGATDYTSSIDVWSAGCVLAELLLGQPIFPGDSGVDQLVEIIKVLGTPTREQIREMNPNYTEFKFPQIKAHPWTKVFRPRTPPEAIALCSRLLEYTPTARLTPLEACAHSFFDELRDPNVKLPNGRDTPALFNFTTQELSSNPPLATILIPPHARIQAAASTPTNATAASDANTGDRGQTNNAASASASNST
Chain of GSK3α(h) (P49840 whole entry): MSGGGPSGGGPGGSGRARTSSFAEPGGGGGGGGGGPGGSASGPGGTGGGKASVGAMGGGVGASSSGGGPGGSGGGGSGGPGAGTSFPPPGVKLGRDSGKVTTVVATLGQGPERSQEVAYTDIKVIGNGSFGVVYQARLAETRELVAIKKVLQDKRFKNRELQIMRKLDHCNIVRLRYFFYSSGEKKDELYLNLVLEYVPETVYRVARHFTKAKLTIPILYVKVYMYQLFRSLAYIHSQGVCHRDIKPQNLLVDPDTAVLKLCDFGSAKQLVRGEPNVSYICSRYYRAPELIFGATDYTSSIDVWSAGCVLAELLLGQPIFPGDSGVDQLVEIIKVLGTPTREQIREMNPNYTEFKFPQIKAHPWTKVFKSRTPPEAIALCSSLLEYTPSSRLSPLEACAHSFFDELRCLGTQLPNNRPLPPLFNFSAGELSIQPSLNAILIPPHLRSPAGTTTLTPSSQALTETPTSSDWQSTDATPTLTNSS
Chain of CaMKI(h) (Q14012 whole entry): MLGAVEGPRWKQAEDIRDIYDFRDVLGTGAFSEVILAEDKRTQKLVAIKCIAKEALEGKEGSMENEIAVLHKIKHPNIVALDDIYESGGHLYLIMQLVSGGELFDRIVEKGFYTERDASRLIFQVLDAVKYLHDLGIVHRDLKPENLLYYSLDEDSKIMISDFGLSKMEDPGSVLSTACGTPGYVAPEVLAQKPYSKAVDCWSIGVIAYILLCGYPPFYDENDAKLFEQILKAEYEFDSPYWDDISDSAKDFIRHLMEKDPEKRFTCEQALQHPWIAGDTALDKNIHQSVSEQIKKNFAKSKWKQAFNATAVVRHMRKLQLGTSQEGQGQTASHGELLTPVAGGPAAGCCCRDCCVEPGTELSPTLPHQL
Chain of MAPK1(h) (P27361 whole entry): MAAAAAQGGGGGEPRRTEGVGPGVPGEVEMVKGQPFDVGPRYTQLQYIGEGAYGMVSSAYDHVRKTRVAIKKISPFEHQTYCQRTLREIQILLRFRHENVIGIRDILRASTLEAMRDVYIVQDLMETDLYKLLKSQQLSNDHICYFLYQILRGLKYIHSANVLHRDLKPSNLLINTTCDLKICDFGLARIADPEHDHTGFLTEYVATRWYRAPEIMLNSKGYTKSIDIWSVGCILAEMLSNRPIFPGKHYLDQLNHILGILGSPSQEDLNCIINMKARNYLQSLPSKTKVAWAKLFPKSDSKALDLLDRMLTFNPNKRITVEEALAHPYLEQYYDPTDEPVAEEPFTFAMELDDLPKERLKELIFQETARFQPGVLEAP

Question: Which results are given for NCCNc1cccc(-c2ccnc3[nH]c4ccccc4c23)c1 [AS283]?
Answer: residual kinase activity, CDK2/cyclinE(h) [1]: 41 percentage of maximal activity; residual kinase activity, CaMKI(h) [2]: 107 percentage of maximal activity; residual kinase activity, CaMKIIδ(h) [3]: 2 percentage of maximal activity; residual kinase activity, GSK3α(h) [4]: 82 percentage of maximal activity; residual kinase activity, PKCδ(h) [5]: 39 percentage of maximal activity; residual kinase activity, MAPK1(h) [6]: 102 percentage of maximal activity; residual kinase activity, JNK2α2(h) [7]: 82 percentage of maximal activity; residual kinase activity, AMPKα1(h) [8]: 70 percentage of maximal activity; residual kinase activity, Pim-1(h) [9]: 50 percentage of maximal activity; residual kinase activity, CaMKIIγ(h) [10]: 2 percentage of maximal activity; residual kinase activity, PKCα(h) [11]: 49 percentage of maximal activity; residual kinase activity, cKit(h) [12]: 50 percentage of maximal activity; residual kinase activity, p70S6K(h) [13]: 18 percentage of maximal activity; residual kinase activity, MEK1(h) [14]: 85 percentage of maximal activity; residual kinase activity, Pim-3(h) [15]: 97 percentage of maximal activity; residual kinase activity, PDK1(h) [16]: 78 percentage of maximal activity; residual kinase activity, KDR(h) [17]: 15 percentage of maximal activity; residual kinase activity, mTOR(h) [18]: 115 percentage of maximal activity; residual kinase activity, Arg(h) [19]: 96 percentage of maximal activity; residual kinase activity, SGK(h) [20]: 86 percentage of maximal activity; residual kinase activity, GSK3β(h) [21]: 87 percentage of maximal activity; residual kinase activity, CaMKIIα(h) [22]: 3 percentage of maximal activity; residual kinase activity, CaMKIV(h) [23]: 90 percentage of maximal activity; residual kinase activity, PDGFRβ(h) [24]: 111 percentage of maximal activity; residual kinase activity, FGFR1(h) [25]: 58 percentage of maximal activity

Question: How did the “binding of CaMKII F89G to GluN2B in vitro” value [26] turn out when CC(C)(C)n1nc(Cc2cccc3ccccc23)c2c(N)ncnc21 [NM-PP1] was run?
Answer: enabled binding of CaMKII F89G to GluN2B also in vitro
